Patent US20030225132A1, “Estrogen receptor modulators” (priority 2002, published 2003)

Tested on: MCF-7 cells
Assay: MCF-7 Estrogen Dependent Proliferation Assay
Type: cell-based
Settings: Homo sapiens, MCF7; added to Estrogen Depleted Media (EDM); read-out: EC50 of stimulation of growth of MCF-7 cells
Excerpt: MCF-7 Estrogen Dependent Proliferation Assay MCF-7 cells (ATCC #HTB-22) are human mammary gland adenocarcinoma cells that require estrogen for growth. The growth media (GM) for the MCF-7 cells is Minimum Essential Media (without phenol red) supplemented with fetal bovine serum ([…]) to 10%. The PBS serves as the sole source of estrogen and this GM supports the full growth of the cells and is used for the routine growth of the cell cultures. When MCF-7 cells are placed in a media in which 10% Charcoal-Dextran treated fetal bovine serum (CD-FBS) is substituted for PBS, the cells will cease to divide but will remain viable. […] The addition of estradiol to EDM stimulates the growth of the MCF-7 cells in a dose dependent manner with an EC50 of 2 pM. Growing MCF-7 cells are washed several times with EDM and the cultures then maintained in EDM for a minimum of 6 days in order to deplete the cells of endogenous estrogen. […] At this point, the culture supernatants are aspirated, the cells washed 2× with PBS, the wash solution aspirated and the protein content of each well determined. Each drug dilution is evaluated on a minimum of 5 wells and the range of dilution of the test compounds in the assay is 0.001 nM to 1000 nM. […] The assay is terminated at day 8-10 when the appropriate controls reach 80-90% confluency and the protein content of each well is determined as above.

C[C@]12CC[C@@H]3c4ccc(O)cc4CC[C@H]3[C@@H]1CC[C@@H]2O [estradiol] showed an EC50 of 2 pM.
